Assay results reported in article PMC6687188, “Novel lactate dehydrogenase inhibitors with in vivo efficacy against Cryptosporidium parvum” (PLoS Pathogens, 2019).
Like-named read-outs stand apart in the source and are kept apart here.

Tests used:
[1] = system: HCT-8 cells; assay: Compound cytotoxicity assay (WST-1 cell proliferation reagent)
Description: A colorimetric assay using the cell proliferation reagent WST-1 (Roche, USA) for the quantification of cell viability was performed. […] When the cells were confluent, the old medium was replaced with fresh medium with or without varying concentrations of chemical compound. After 24 h of culture, 10 μl of the cell proliferation reagent WST-1, (for quantification of cell viability) was added to each well, mixed and the plates incubated for 1 h at 37 C with 5% CO2 in the dark. […] Three independent assays were performed and the dose–response curves of the means of triplicate assays were generated using GraphPad PRISM software to derive the half maximal inhibitory concentration (IC50) of compounds in HCT-8 cells.

[2] = molecular target: recombinant CpLDH protein (Cryptosporidium parvum, UniProt Q9GT92, F198L/K295E/R251K)

Cc1cc(N(CCCl)CCCl)ccc1/C=N/NC(=O)Cc1cc(=O)oc2cc(O)ccc12 [NSC79688]
IC50 ([1]; read-out: CYTOTOXICITY IC50, HCT-8 cells, 24 h): 145 µM | MEAN CpLDH INHIBITION (%) [2]: 40.15%

O=c1oc2cc(O)ccc2c2oc3cc(O)ccc3c12 [NSC22842]
IC50 [1]: 83.5 µM | MEAN CpLDH INHIBITION (%) [2]: 3.48%

CCOC(C)C(C=NNC(N)=S)=NNC(N)=S (stereo not drawn) [NSC82116]
IC50 [1]: 118 µM | MEAN CpLDH INHIBITION (%) [2]: 10.05%

O=C1/C(=C/c2ccccc2)CN(C(=O)/C=C/c2ccccc2)C/C1=C\c1ccccc1 [NSC638634]
IC50 [1]: 157 µM | MEAN CpLDH INHIBITION (%) [2]: 0.30%

O=S(=O)(O)c1cc(N=Nc2cc(S(=O)(=O)O)c3cccnc3c2O)ccc1/C=C/c1ccc(N=Nc2cc(S(=O)(=O)O)c3cccnc3c2O)cc1S(=O)(=O)O [NSC638352]
IC50 [1]: 116 µM | MEAN CpLDH INHIBITION (%) [2]: 43.74%

O=C([CH-]C(=O)C(F)(F)F)c1ccccc1.O=C([CH-]C(=O)C(F)(F)F)c1ccccc1.O=C([CH-]C(=O)C(F)(F)F)c1ccccc1.O=C([CH-]C(=O)C(F)(F)F)c1ccccc1.[Eu+3].c1ccncc1 [NSC253995]
IC50 [1]: 83 µM | MEAN CpLDH INHIBITION (%) [2]: 25.71%

CC(=O)Nc1ccc(-c2nc3ccccc3s2)cc1 [NSC33006]
IC50 [1]: 87.3 µM | MEAN CpLDH INHIBITION (%) [2]: 13.74%

N#CCCN(CCC#N)Cc1cc(O)c(CN(CCC#N)CCC#N)cc1O [NSC70925]
IC50 [1]: 142 µM | MEAN CpLDH INHIBITION (%) [2]: 68.17%

COC(=O)C1=C(C(=O)OC)SC2(S1)C(C(=O)OC)=C(C(=O)OC)Sc1c2ssc1=O [NSC686349]
IC50 [1]: 283 µM | MEAN CpLDH INHIBITION (%) [2]: 31.74%

CC(O)CCC(=O)c1ccoc1 (stereo not drawn) [NSC349438]
IC50 [1]: 93.9 µM | MEAN CpLDH INHIBITION (%) [2]: 13.12%

O=S(=O)(O)c1cc(N=[N+]([O-])c2cc(S(=O)(=O)O)c3ccccc3c2)cc2ccccc12 [NSC37031]
IC50 [1]: 333 µM | effect on catalytic activity of recombinant CpLDH (in words) [2]: significantly (P < 0.05) inhibited

O=Cc1cc([N+](=O)[O-])no1 [NSC626433]
IC50 [1]: 265 µM | MEAN CpLDH INHIBITION (%) [2]: 48.62%

O=S(=O)([O-])c1cc(N=Nc2cc(S(=O)(=O)[O-])c3ccccc3c2O)ccc1/C=C/c1ccc(N=Nc2cc(S(=O)(=O)[O-])c3ccccc3c2O)cc1S(=O)(=O)[O-].[Na+].[Na+].[Na+].[Na+] [NSC34931]
IC50 [1]: 71.1 µM | MEAN CpLDH INHIBITION (%) [2]: 43.74%

O=C(O)[C@@H]1[C@H](C(=O)O)[C@]2(Cl)C(Cl)=C(Cl)[C@@]1(Cl)C2(Cl)Cl [NSC22225]
IC50 [1]: 96.8 µM | effect on catalytic activity of recombinant CpLDH (in words) [2]: significantly (P < 0.05) inhibited

Cc1ccc2c(sc(-c3ccc4c(c3)sc(-c3ccc(N(C)C)cc3)[n+]4C)[n+]2C)c1S(=O)(=O)[O-].[Cl-] [NSC71948]
IC50 [1]: 106 µM | MEAN CpLDH INHIBITION (%) [2]: 60.47%

O=[N+]([O-])c1cccc2c(N=Nc3ccc4ccccc4c3O)c(O)cc(S(=O)(=O)O)c12.[Na+] [NSC85561]
IC50 [1]: 103 µM | MEAN CpLDH INHIBITION (%) [2]: 73.45%

CCCCn1c2c(n(CCCC)c1=S)-c1c(n(CCCC)c(=S)n1CCCC)SSSS2 [NSC700582]
MEAN CpLDH INHIBITION (%) [2]: -83.75%

CCS(=O)(=O)Nc1ccc(Nc2c3ccccc3nc3ccccc23)c(OC)c1.CS(=O)(=O)O [NSC243928]
MEAN CpLDH INHIBITION (%) [2]: -32.64%

C[C@]12CC[C@H](O)C[C@H]1CC[C@@H]1[C@@H]2CC[C@]2(C)[C@@H](C3=CC(=O)OC3)CC[C@]12O [NSC407806]
MEAN CpLDH INHIBITION (%) [2]: -16.59%

Cc1c(N=Cc2ccc(N(CCC#N)CCC#N)cc2)c(=O)n(-c2ccccc2)n1C [NSC620280]
MEAN CpLDH INHIBITION (%) [2]: -51.47%

CON(C)C(=O)C1CCCO1 (stereo not drawn) [NSC695218]
MEAN CpLDH INHIBITION (%) [2]: -28.71%

O=C(OCC12CC3CC(CC(C3)C1)C2)c1ccc(NCc2cc(O)ccc2O)cc1 [NSC689857]
MEAN CpLDH INHIBITION (%) [2]: -0.01%

Cc1ccc(NC(=O)c2cc3ccccc3c(N=Nc3ccccc3O)c2O)c(C)c1 [NSC374898]
MEAN CpLDH INHIBITION (%) [2]: -39.33%

O=C1c2cccc(O)c2C(=O)c2c(O)cccc21 [NSC7210]
MEAN CpLDH INHIBITION (%) [2]: -48.97%

Cc1ccc2ccc3ccc(C)nc3c2n1 [NSC4280]
MEAN CpLDH INHIBITION (%) [2]: -27.03%

CCC[CH2][Pb]([Cl])([CH2]CCC)[CH2]CCC [NSC168597]
MEAN CpLDH INHIBITION (%) [2]: -54.94%

C=C(NC(=O)C(=C)NC(=O)c1csc(C2=N[C@@H]3c4csc(n4)[C@H]4NC(=O)c5csc(n5)[C@H]([C@](C)(O)[C@@H](C)O)NC(=O)[C@H]5CSC(=N5)/C(=C/C)NC(=O)[C@H]([C@@H](C)O)NC(=O)c5csc(n5)[C@]3(CC2)NC(=O)[C@H](C)NC(=O)C(=C)NC(=O)C(=C)NC(=O)[C@H](C(C)C)N[C@@H]2C=Cc3c([C@H](C)O)cc(nc3[C@H]2O)C(=O)O[C@@H]4C)n1)C(N)=O [NSC285116]
MEAN CpLDH INHIBITION (%) [2]: -2.26%

O=c1cnn(C2OC(CO)C(O)C2O)c(=S)[nH]1 (stereo not drawn) [NSC146268]
MEAN CpLDH INHIBITION (%) [2]: -43.94%

O=[Se]([O-])[O-].[Na+].[Na+] [NSC347466]
MEAN CpLDH INHIBITION (%) [2]: -3.84%

O=C(CC1(O)C(=O)Nc2c(Cl)cc(Cl)cc21)c1cccc2ccccc12 (stereo not drawn) [NSC635328]
MEAN CpLDH INHIBITION (%) [2]: -47.14%

CN(CO)c1nc(N(C)CO)nc(N(C)CO)n1 [NSC283162]
MEAN CpLDH INHIBITION (%) [2]: -65.77%

CCN1C=C/C(=C\C=C\c2cc[n+](CC)c3ccccc23)c2ccccc21.[I-] [NSC34391]
MEAN CpLDH INHIBITION (%) [2]: -25.08%
